The text below walks through data of paper PMC9730482 (ACS Omega, 2022).

Molecules are shown by their SMILES.

The target of this test is α-glucosidase (Saccharomyces cerevisiae, UniProt P38158). Nature of the test: In vitro α-glucosidase inhibition assay. Type of test: biochemical, S. cerevisiae. As to conditions: for inhibition at 500 µM: read-out: percent inhibition (0.5 mM).
Sequence of α-glucosidase (P38158 whole entry): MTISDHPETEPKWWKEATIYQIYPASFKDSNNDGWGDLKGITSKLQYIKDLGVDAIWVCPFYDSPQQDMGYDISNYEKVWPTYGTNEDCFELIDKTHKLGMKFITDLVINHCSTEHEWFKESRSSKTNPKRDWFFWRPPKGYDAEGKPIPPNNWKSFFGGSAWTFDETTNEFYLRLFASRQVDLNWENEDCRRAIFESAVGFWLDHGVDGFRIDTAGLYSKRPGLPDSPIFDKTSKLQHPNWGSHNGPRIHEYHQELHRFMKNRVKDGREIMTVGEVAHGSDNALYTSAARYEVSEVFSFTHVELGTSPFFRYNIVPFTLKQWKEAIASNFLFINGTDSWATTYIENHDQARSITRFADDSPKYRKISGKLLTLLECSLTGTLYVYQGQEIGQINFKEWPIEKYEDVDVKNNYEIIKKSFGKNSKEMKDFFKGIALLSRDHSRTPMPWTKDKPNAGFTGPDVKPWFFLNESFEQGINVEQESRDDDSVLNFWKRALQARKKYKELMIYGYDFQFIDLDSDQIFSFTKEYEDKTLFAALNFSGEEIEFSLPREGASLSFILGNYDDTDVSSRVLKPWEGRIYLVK

Usually IC50 stands for the concentration that gives 50% inhibition. Higher therefore signals a need for much substance. The inhibition is the change of the read-out against control, counted positive when it falls. On to `O=[N+]([O-])c1ccc(C=Nc2ccc3[nH]c(S)nc3c2)cc1` [7c, 5-((4-Nitrobenzylidene)amino)-1H-benzo[d]imidazole-2-thiol], for which 9.84 ± 0.08 µM corresponded to half-maximal inhibition (IC50) and the inhibition at 500 µM was 95.7%.

In the case of `CCN(CC)c1ccc(C=Nc2ccc3[nH]c(S)nc3c2)cc1` [7d, 5-((4-(Diethylamino)benzylidene)amino)-1H-benzo[d]imidazole-2-thiol], 5.34 ± 0.16 µM corresponded to half-maximal inhibition (IC50) and the inhibition at 500 µM amounted to 96.6%. The corresponding values for `COc1ccc(C=Nc2ccc3[nH]c(S)nc3c2)c(OC)c1` [7f, 5-((2,4-Dimethoxybenzylidene)amino)-1H-benzo[d]imidazole-2-thiol] are 6.46 ± 0.3 µM and 95%. As to `Oc1ccc(C=Nc2ccc3[nH]c(S)nc3c2)cc1` [7a, 4-(((2-Mercapto-1H-benzo[d]imidazol-5-yl)imino)methyl)phenol], the IC50 was 11.8 ± 0.26 µM and the inhibition at 500 µM was found to be 95.7%. The corresponding values for `Sc1nc2cc(N=Cc3ccc(Cl)cc3)ccc2[nH]1` [7b, 5-((4-Chlorobenzylidene)amino)-1H-benzo[d]imidazole-2-thiol] are 27.3 ± 0.3 µM and 93.2%. The corresponding values for `Oc1ccc(C=Nc2ccc3[nH]c(S)nc3c2)c(O)c1` [7i, 4-(((2-Mercapto-1H-benzo[d]imidazol-5-yl)Imino)methyl)benzene-1,3-diol] are 0.64 ± 0.05 µM and 95.4%.

For the molecule `COc1ccccc1C=Nc1ccc2[nH]c(S)nc2c1` [7l, 5-((2-Methoxybenzylidene)amino)-1H-benzo[d]imidazole-2-thiol], the concentration for half-maximal inhibition (IC50) was 343.1 ± 1.62 µM and the inhibition at 500 µM was 83.2%.

As to `Cc1ccc(C=Nc2ccc3[nH]c(S)nc3c2)cc1` [7m, 5-((4-Methylbenzylidene)amino)-1H-benzo[d]imidazole-2-thiol], the IC50 amounted to 11.1 ± 0.79 µM and the inhibition at 500 µM amounted to 94%. The corresponding values for `COc1cccc(C=Nc2ccc3[nH]c(S)nc3c2)c1O` [7e, 2-(((2-Mercapto-1H-benzo[d]imidazol-5-yl)imino)methyl)-6-methoxyphenol] are 16.4 ± 0.53 µM and 91.3%.

For `Sc1nc2cc(N=Cc3cccs3)ccc2[nH]1` [7k, 5-((Thiophen-2-ylmethylene)amino)-1H-benzo[d]imidazole-2-thiol], the IC50 is 70.3 ± 1.52 µM and the inhibition at 500 µM is 87.6%.

On to `COc1cc(C=Nc2ccc3[nH]c(S)nc3c2)cc(OC)c1OC` [7j, 5-((3,4,5-Trimethoxybenzylidene)amino)-1H-benzo[d]imidazole-2-thiol], for which it took 18.7 ± 0.74 µM to reach half-maximal inhibition (IC50) and the inhibition at 500 µM is 94.7%.

For the molecule `C[C@H]1O[C@H](O[C@H]2[C@H](O)[C@@H](O)[C@@H](O[C@H]3[C@H](O)[C@@H](O)C(O)O[C@@H]3CO)O[C@@H]2CO)[C@H](O)[C@@H](O)[C@@H]1N[C@H]1C=C(CO)[C@@H](O)[C@H](O)[C@H]1O` (stereo partly shown) [acarbose, reference compound], the inhibition at 500 µM was 58.5%. `COc1ccc(C=Nc2ccc3[nH]c(S)nc3c2)cc1OC` [7h, 5-((3,4-Dimethoxybenzylidene)amino)-1H-benzo[d]imidazole-2-thiol]: the IC50 is 20.7 ± 0.59 µM and the inhibition at 500 µM stood at 91.7%.
